Measurements from patent US6988613B2, “Composition for IVF” (Novo Nordisk A/S, priority 2001, dated 2006).
Values after ≈ are worked out from the molar mass of the structure shown. Like-named read-outs stand apart in the source and are kept apart here.

Columns and labels:
[1] = Solubility of FF-MAS in water, ethanol and ethanol/water; type: physicochemical
Protocol: The solubility of a preferred MAS, i.e., FF-MAS, in water is very low, i.e., approximately 20 picogram/ml (corresponding to 2×10^−5 μg/ml). […] According to our preliminary investigations, the highest solubility of FF-MAS in a mixture of ethanol and water (1:2.5) is approximately 0.4 mg/ml. Several other MASs have a similar low solubility in water.

[2] = system: oocytes obtained from immature female mice; test: Germinal vesicle breakdown (GVB) test on mouse oocytes; type: cell-based
Protocol: Oocytes were obtained from immature female mice (C57BL/6J×DBA/2J F1, Bomholtgaard, Denmark) weighing 13–16 grams, that were kept under controlled temperature (20–22° C.), light (lights on 06.00–18.00) and relative humidity (50–70%). The mice received an intraperitoneal injection of 0.2 ml gonadotropins (Gonal-F, Serono) containing 20 IU FSH and 48 hours later the animals were killed by cervical dislocation. The ovaries were dissected out and the oocytes were isolated in Hx-medium (see below) under a stereo microscope by manual rupture of the follicles using a pair of 27 gauge needles. Spherical oocytes displaying an intact germinal vesicle (hereinafter designated GV) were divided in cumulus enclosed oocytes (hereinafter designated CEO) and naked oocytes (hereinafter designated NO) and placed in α-minimum essential medium (α-MEM without ribonucleosides, Gibco BRL, Cat. No. 22561) supplemented with 3 mg/ml bovine serum albumin (BSA, Sigma Cat. No. A-7030), 5 mg/ml human serum albumin (HSA, State Serum Institute, Denmark), 0.23 mM pyruvate (Sigma, Cat. No S-8636), 2 mM glutamine (Flow Cat. No. 16-801), 100 IU/ml penicillin and 100 μg/ml streptomycin (Flow, Cat No. 16-700). This medium was supplemented with 3 mM hypoxanthine (Sigma Cat. No. H-9377) and designated Hx-medium.
The oocytes were rinsed three times in Hx-medium and oocytes of uniform size were divided into groups of CEO and NO. CEO and NO were cultured in 4-well multidishes (Nunclon, Denmark) in which each well contained 0.4 ml of Hx-medium and the compound to be tested in a concentration of 10 μM. One control well (i.e., 35–45 oocytes cultured in identical medium with no addition of test compound) was always cultured simultaneously with 3 test wells (35–45 oocytes per well supplemented with test compound).
The oocytes were cultured in a humidified atmosphere of 5% CO2 in air for 24 hours at 37° C. By the end of the culture period, the number of oocytes with GV, GVB and polar bodies (hereinafter designated PB), respectively, were counted using a stereo microscope (Wildt, Leica MZ 12). The percentage of GVB, defined as percentage of oocytes undergoing GVB per total number of oocytes in that well, was calculated as: % GVB=((number of GVB+number of PB)/total number of oocytes)×100.
FF-MAS was dissolved in ethanol (25 μg FF-MAS/ml ethanol). HSA is dissolved in water (1%). 100 μl of the above mentioned ethanol solution (corresponding to the amount of FF-MAS needed for one treatment) and 350 μl of the above-mentioned HSA solution were mixed in a glass vial. The resulting mixture of FF-MAS and HSA was evaporated to dryness by airflow of argon. After the liquid was evaporated, the vial was sealed by a rubber septum and the vial was placed at a temperature of 2–8° C. At the time for usage, 500 μl of freshly prepared IVM media was added to the residue in the vial and shaken calmly for 1–2 minutes. The IVM media used was TCM 199 with Earle's salts (Sigma) to which was added 0.8% HSA, 2 mM L-glutamine, 0.25 mM sodium pyrovate, 100 IU/ml penicillin G, and 100 microgram/ml streptomycin. The liquid was transferred to a 4-well dish and the composition was tested on oocytes obtained from immature female mice. Percentage GVB obtained, see below in Table 1.
FF-MAS was dissolved in ethanol (20 μg FF-MAS/ml ethanol) and HSA was dissolved in water (1%). 100 μl of the above mentioned ethanol solution (corresponding to the amount of FF-MAS needed for one treatment) and 250 μl of the above-mentioned HSA solution were mixed and 350 μl of the combined liquid was aliquoted in a glass vials. The vials were placed at −80° C. for one night. All samples were thereafter freeze-dried at −45° C. for 16 hours followed by 8 hours freeze drying at −15° C. and 8 hours freeze drying at +25° C. Before the freeze dryer was opened all vials were automatically sealed with rubber septums by a pressure of nitrogen. The vials were closed with a capsule and placed at a temperature of 2–8° C. […]

CC(C)=CCC[C@@H](C)[C@H]1CC=C2C3=C(CC[C@@]21C)[C@@]1(C)CC[C@H](O)C(C)(C)[C@@H]1CC3 [FF-MAS, 4,4-dimethyl-5α-cholesta-8,14,24-triene-3β-ol]
solubility ([1]; ethanol/water (1:2.5), aqueous with cosolvent or surfactant or cyclodextrin, ethanol and water (1:2.5), preliminary investigations, read-out: highest solubility of FF-MAS in a mixture of ethanol and water): ~400 µg/mL (≈ 0.974 mM)
solubility of FF-MAS in water ([1]; in water): approximately 20 picogram/ml
solubility ([1]; organic solvent or mixture, in ethanol, read-out: solubility of FF-MAS in ethanol): ~12000 µg/mL (≈ 29.2 mM)
% GVB ([2]; Dose FF-MAS 0.24 μmol/l, in combination with HSA 6 mg/ml, Example 3): 86%
% GVB ([2]; Dose FF-MAS 0.48 μmol/l, in combination with HSA 6 mg/ml, Example 3): 88%
% GVB ([2]; Dose FF-MAS 1.2 μmol/l, in combination with HSA 6 mg/ml, Example 3): 91%
% GVB ([2]; Dose FF-MAS 2.4 μmol/l, in combination with HSA 6 mg/ml, Example 3): 97%
% GVB ([2]; Dose FF-MAS 10 μmol/l, internal control dissolved in ethanol, Example 3): 43%
% GVB ([2]; Dose FF-MAS 10 μmol/l, internal control dissolved in ethanol, Example 4, first test): 85%
% GVB ([2]; Dose FF-MAS 10 μmol/l, internal control dissolved in ethanol, Example 4, second test): 83%
% GVB ([2]; Dose FF-MAS 10 μmol/l, internal control dissolved in ethanol, Example 8, 5 tests): 85%
